Experimental data published in patent publication US4241053A, “Novel nitrosourea compounds and process for preparing the same” (Tanabe Seiyaku Co., Ltd., priority 1978, dated 1980).

Key:
leukemic cells = conditions: cited from earlier work
lymphoid leukemia L-1210 = conditions: tumor cells implanted intraperitoneally; cited from earlier work
[1] = Preventive effect against the growth of Ehrlich ascites tumor (Method A); format: in vivo, mice (female ICR); conditions: mouse, in vivo, ip; maximum dose with 100% inhibition of Ehrlich ascites tumor without causing death; unit from dose column; read-out: MTD (Maximum Tolerated Dose)
Procedure: (§1) (A) Preventive effect against the growth of Ehrlich ascites tumor:
(§2) 10^6 tumor cells of Ehrlich ascites carcinoma were inoculated intraperitoneally into a group of five femal mice (ICR mice, body weight: 19-23 g). A test compound was dissolved in a physiological saline solution [In the case where CCNU was employed as the test compound, said compound was suspended in a physiological saline solution containing 0.1% NIKKOL HCO-60 (trademark; a surface active agent manufactured by Nikko Chemicals Co. Ltd.)] and administered intraperioneally to the mice. The administration of the test compound was begun 24 hours after the inoculation of the tumor cells and performed once a day for 5 days. The volume of ascites in the treated mice were measured after 7 days of the experiment.
(§3) ^a T = the average volume of ascites in the treated mice
(§4) C = the average volume of ascites in the untreated mice (control group of
(§5) 100% inhibition for the growth of Ehrlich ascites tumor in mice without
(§6) causing the death of said mice)
(§7) 100% inhibition for the growth of said ascites tumor)
(§8) ^e Therapeutic index = MTD/MED
(§9) *the number of mice died/the number of mice used

[2] = test system: Ehrlich ascites carcinoma; assay: as above; format: in vivo, mice (female ICR); conditions: once a day for 5 days
Procedure: as §1, §2, §3, §4, §5, §6, §7, §8, §9

For `O=NN(CCCl)C(=O)NC1O[C@H](CO)[C@@H](O[C@H]2O[C@H](CO)[C@@H](O)[C@H](O)[C@H]2O)[C@H](O)[C@H]1O` (stereo partly drawn) [1-(2-chloroethyl)-1-nitroso-3-(D-maltosyl)urea], the “anti-tumor activity against leukemic cells” value (leukemic cells) is listed as “show anti-tumor activity”.

For `O=NN(CCCl)C(=O)N[C@@H]1O[C@H](CO)[C@@H](O)[C@H](O)[C@H]1O` [GANU, 1-(2-chloroethyl)-1-nitroso-3-(D-glucopyranosyl)urea, reference compound], the “life span of mice implanted with L-1210” value (lymphoid leukemia L-1210) is listed as “increase the life span”, the MTD at 168 h [1] is listed as 12.5 mg/kg/day and the “Toxic (number of mice died/number of mice used)” value ([2]; 25 mg/kg/day i.p.) is listed as 5/5. For the same compound, the inhibition in vivo at 0.09 mg/kg ([2]; Mus musculus, Ehrlich, ip, 168 h, 0.09 mg/kg/day i.p., read-out: Inhibition ratio) was 4.2%, the inhibition in vivo at 0.19 mg/kg ([2]; Mus musculus, Ehrlich, ip, 168 h, 0.19 mg/kg/day i.p., read-out: Inhibition ratio) was 79.2% and the inhibition in vivo at 0.39 mg/kg ([2]; Mus musculus, Ehrlich, ip, 168 h, 0.39 mg/kg/day i.p., read-out: Inhibition ratio) was 100%. It also gave an inhibition in vivo at 0.78 mg/kg ([2]; Mus musculus, Ehrlich, ip, 168 h, 0.78 mg/kg/day i.p., read-out: Inhibition ratio) of 100%, an inhibition in vivo at 1.25 mg/kg ([2]; Mus musculus, Ehrlich, ip, 168 h, 1.25 mg/kg/day i.p., read-out: Inhibition ratio) of 100% and an inhibition in vivo at 3.12 mg/kg ([2]; Mus musculus, Ehrlich, ip, 168 h, 3.12 mg/kg/day i.p., read-out: Inhibition ratio) of 100%.

In the case of `O=NN(CCCl)C(=O)NC1O[C@H](CO)[C@@H](O[C@@H]2O[C@H](CO)[C@H](O)[C@H](O)[C@H]2O)[C@H](O)[C@H]1O` (stereo partly drawn) [1-(2-chloroethyl)-1-nitroso-3-(D-lactosyl)urea], the “anti-tumor activity against leukemic cells” value (leukemic cells) is listed as “show anti-tumor activity”.
